Laboratory results from publication PMC4750079, “Tackling amyloidogenesis in Alzheimer’s disease with A2V variants of Amyloid-β” (Scientific Reports, 2016).
Where a SMILES comes first, the peptide text is derived from it. [ ]: non-standard residue; d: D form.

Assays:
[1] = Crossing of blood brain barrier and cell membranes (data not shown); details: peptide alone
SH-SY5Y cells = assay: Toxicity of peptides on differentiated SH-SY5Y cells (MTT test); assay type: cell-based, human; details: 24 h; for toxicity for living cells: up to 20 μM, mean of three independent assays
Protocol: Figure 2 Analysis of the effects of Aβ1-6WT(D), Aβ1-6A2V(D) and Aβ1-6A2VTAT(D) on neurotoxicity in cell models. SH-SY5Y cells were differentiated with 10 μM retinoic acid. […] Comparison of cell viability was performed by Student t-test.
Toxicity studies with Aβ1-6WT(D), Aβ1-6A2V(D) or Aβ1-6A2VTAT(D) and the short peptides’ ability to inhibit the toxicity induced by Aβ1-42WT in SH-SY5Y cell cultures were analyzed following previously described protocols. Each experiment was performed in triplicate; the data provided were obtained as the mean of three independent assays.

amyloid plaques = assay: Binding of biotinylated peptides to amyloid in CRND8 mouse brain sections; details: for staining of amyloid plaques in transgenic mouse brain: CRND8 transgenic brain sections, avidin-biotin complex / DAB
Protocol: It was tested on brain sections of transgenic and control mice of CRND8 strain[44]. To unequivocally identify the fragment(s) of the peptide responsible for binding to plaques we used three separate segments: Biot-Aβ1-6WT(D), Biot-Aβ1-6A2V(D) and Biot-TAT(D). Seven-micrometre thick brain sections fixed in Carnoy and embedded in paraffin were used for staining.

Aβ1-42WT = biological target: T1, Aβ1-42WT (Homo sapiens, UniProt P05067); assay: Atomic force microscopy of Aβ1-42WT oligomerization; assay type: biochemical; details: Aβ1-42WT alone, 100 μM, phosphate buffer 50 mM pH 7.4, 4 °C, 24 h, AFM
T1 construct: Aβ1-42WT oligomers were formed following incubation of Aβ1-42WT at a final concentration of 100 μM; made in house; host or cells: chemical synthesis (solid-phase Fmoc), no expression host
Protocol: In polarized-light and EM studies, both peptides were used at 0.125 mM, molar ratio = 1:1 or 1:4 respectively, with 20 days incubation. […] E,F: Representative Tapping mode of AFM images as determined by amplitude error data of Aβ1-42WT oligomers. Aβ1-42WT peptide 100 μM in phosphate buffer 50 mM, pH 7.4 was incubated at 4 °C for 24 h alone (E) (Z range: -10/ + 10 mV) or in presence of Aβ1-6A2VTAT(D) (F) (Z range: -10/ + 25 mV). The molar ratio of Aβ1-42WT to Aβ1-6A2VTAT(D) was 1:4. Scale bar: 1 μm, inset: 200 nm. (G,H): height plot profiles obtained along different lines traced on the topographic AFM images.
Aβ1-42WT oligomers were formed following incubation of Aβ1-42WT at a final concentration of 100 μM in phosphate buffer 50 mM, pH 7.4 at 4 °C for 24 h, alone or in presence of Aβ1-6A2VTAT(D), at 1:4 molar ratio. Sample solutions were diluted to a final concentration of 10 μM of Aβ1-42WT with phosphate buffer and 50 μl of each solution was immediately added onto freshly cleaved mica at room temperature for 2 minutes. Samples were washed and dried under gentle nitrogen flow. AFM analyses were carried out on a Multimode AFM with a Nanoscope V system (Veeco/Digital Instruments). AFM images were analysed using the Scanning Probe Image Processor data analysis package. All the topographic patterns and SPIP characterization were verified via additional measurements on a minimum of five different, well separated areas.

APP = details: enhanced β-secretase cleavage of APP, increased C99; cited from earlier work
Description: This is consistent with our findings, indicating a shift in APP processing towards the amyloidogenic processing i ...

T1 sequence (P05067 672-713 limits assumed): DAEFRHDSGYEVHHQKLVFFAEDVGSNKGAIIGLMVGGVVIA

Q: With `CC(C)[C@@H](NC(=O)[C@H](N)CC(=O)O)C(=O)N[C@H](CCC(=O)O)C(=O)N[C@H](Cc1ccccc1)C(=O)N[C@H](CCCNC(=N)N)C(=O)N[C@H](Cc1c[nH]cn1)C(=O)O` [Aβ1-6A2V(D)] (H-[dD][dV][dE][dF][dR][dH]-OH) as the molecule, how does the “crossing of blood brain barrier and cell membranes” value [1] read?
A: does not efficiently cross either the blood brain barrier (BBB) or cell membranes

Q: And the “toxicity for living cells” value (SH-SY5Y cells)?
A: neither is toxic for living cells even at high concentrations

Q: Which “staining of amyloid plaques in transgenic mouse brain” value (“staining of amyloid plaques” below) (amyloid plaques) does the source give for “H-Asp-ALA/VAL-Glu-Phe-Arg-His-OH [Biot-Aβ1-6A2V(D), Aβ1-6A2V(D) containing a biotinylated residue at the C-terminus]” here?
A: no immunostaining of amyloid was detected

Q: For “Gly-Arg-Lys-Lys-Arg-Arg-Gln-Arg-Arg-Arg [Biot-TAT(D), biotinylated form of TAT(D), reference compound]”, which “staining of amyloid plaques” value (amyloid plaques) is on record?
A: strongly stained amyloid deposits

Q: Which “staining of amyloid plaques” value (amyloid plaques) does the source give for “H-Asp-ALA/VAL-Glu-Phe-Arg-His-Gly-Gly-Gly-Gly-Gly-Arg-Lys-Lys-Arg-Arg-Gln-Arg-Arg-Arg [Biot-Aβ1-6WTTAT(D), Aβ1-6WTTAT(D) containing a biotinylated residue at the C-terminus]” here?
A: able to bind and therefore stain the plaques

Q: What about the “staining in brain slices of non-transgenic control mice” value (amyloid plaques; control animals devoid of amyloid plaques, data not shown) of the same molecule?
A: unable to produce any staining

Q: For `C[C@@H](NC(=O)[C@H](N)CC(=O)O)C(=O)N[C@H](CCC(=O)O)C(=O)N[C@H](Cc1ccccc1)C(=O)N[C@H](CCCNC(=N)N)C(=O)N[C@H](Cc1c[nH]cn1)C(=O)O` [Aβ1-6WT(D)] (H-[dD][dA][dE][dF][dR][dH]-OH), which “toxicity for living cells” value (SH-SY5Y cells) is on record?
A: neither is toxic for living cells even at high concentrations

Q: Which “diameter of small oligomers (~70%)” value (Aβ1-42WT) does the source give for “H-Asp-ALA/VAL-Glu-Phe-Arg-His-Asp-Ser-Gly-Tyr-Glu-Val-His-His-Gln-Lys-Val-Phe-Phe-Ala-Glu-Asp-Val-Gly-Ala-Ile-Ile-Gly-Leu-Met-Val-Gly-Gly-Val-Val—OH [Aβ1-42WT, synthetic wild-type full-length Amyloid-β 1-42, reference compound]” here?
A: 6-20 nm

Q: And the “reduction of cell viability” value (SH-SY5Y cells)?
A: 35%

B1: TAT: HIV-1 Tat of the cited studies (protein, UniProt P04608 1-86, looked up)
Protein Tat: MEPVDPRLEPWKHPGSQPKTACTNCYCKKCCFHCQVCFITKALGISYGRKKRRQRRRAHQNSQTHQASLSKQPTSQPRGDPTGPKE
Q: With B1 as the molecule, how does the “fold higher levels of Aβ42” value (APP) read?
A: 5.5 fold
